Experimental data: patent US5070210A, “Novel ketenimines as intermediates for insecticides” (ICI Americas Inc., priority 1990, dated 1991)

What was measured:
Type in all cases: in vivo
[1] = tested on: Tobacco Budworm [Heliothis virescens (Fabricius)] eggs; test: Tobacco budworm egg test; settings: 2-day old eggs, percent in solution
Method in brief: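 2-day eggs on paper towel, acetone dip, 0.1% and below; petri dish with larval diet, 78° F. Mortality read after control hatch and larval feeding. LC50 = % compound in solution, from dose-mortality curve.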

[2] = tested on: Aster Leafhopper [Macrosteles fascifrens (Stal)]; test: Aster leafhopper insecticidal test; settings: adults/nymphs, percent in solution; 48 hours
Method in brief: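 Three ~10 cm oat seedlings per cup were dipped 2-3 seconds in 50-50 acetone-water compound solutions, dried, and caged with ten adult/nymph leafhoppers. Mortality was counted after 48 hours at concentrations from 0.05% downward. LC50, as percent compound in solution, came from dosage-mortality curves.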

[3] = tested on: Tobacco Budworm [Heliothis virescens (Fabricius)] larvae; test: Tobacco budworm contact test; settings: second-instar larvae, percent in solution, 5 days
Experimental: The compounds in Tables 1 and 2 above were tested for insecticidal activity using the following testing procedures. LC50 values, based on the results of these tests and calculated according to dosage-mortality curves, are expressed in Table 3.
Tobacco Budworm [Heliothis virescens (Fabricius)]:
(a) Contact: Test compounds were diluted in a 50-50 acetone-water solution. Cotton (Gossypium sp.) cotyledons were immersed in the test solutions for 2-3 seconds and placed on a wire screen to dry. The dried leaves were placed in petri dishes containing a moistened piece of filter paper and infested with 5 second-instar tobacco budworm larvae. The dishes were placed in a high humidity chamber for 5 days, and percent mortality of the larvae recorded. Test concentrations ranged from 0.1% downward. The LC-50 values are expressed below in Table 3 under the heading "TBW-C" in terms of percent of the test compound in the solution.

[4] = tested on: Maize weevil [Sitophilus Zeamais (Motschulsky)]; test: Maize weevil insecticidal test; settings: adult weevils, percent in solution; 48 hours
Method in brief: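 LC50, in percent of compound in solution, was derived from dosage-mortality curves after 48 h at about 25 °C. Ten adult weevils per container fed on four corn seeds briefly immersed in acetone:water (50:50) solutions of up to 0.01% and dried.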

[5] = tested on: Cabbage Looper [Trichoplusia ni (Hubner)]; test: Cabbage looper insecticidal test; settings: second-instar larvae, percent in solution; 3-5 days
Method in brief: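 LC50 values, given as percent test compound in solution, were calculated from dosage-mortality curves. Squash cotyledons were immersed 2-3 s in acetone-water (50-50) dilutions starting at 0.1%, dried on a screen, then infested with five second-instar larvae. Mortality was read 3-5 days on.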

[6] = tested on: Housefly [Musca domestica]; test: Housefly insecticidal test; settings: μg per 25 female flies; mortality after 48 hours
Method in brief: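 Acetone solutions (with 0.01% peanut oil) dried onto dish bottoms, then 25 female flies, 1-2 days old, caged over the residue with sugar water. Mortality scored at 48 hours; LC50 from dosage-mortality curves, in μg per 25 female flies, top level 100 μg.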

Row | Structure (SMILES) | LC50, TBW, E (TBW-E) [1] [%] | LC50, LH [2] [%] | LC50, TBW, C (TBW-C) [3] [%] | LC50, MW [4] [%] | LC50, CL [5] [%] | LC50, HF [6] [µg]
1 | CC1(C(=Nc2ccc(Cl)cc2)OCc2cccc(Oc3ccccc3)c2)CC1 [Compound 5] | 0.05 | > 0.05 | 0.008 | > 0.01 | 0.005 | 21
2 | CC(C)(C)C(=Nc1ccc(Cl)cc1)OCc1cccc(Oc2ccccc2)c1 [Compound 30] | > 0.1 | > 0.05 | 0.01 | > 0.01 | 0.003 | > 100
3 | CC(C)C(=Nc1ccc(Cl)c(Cl)c1)OCc1cccc(Oc2ccc(F)cc2)c1 [Compound 37] | 0.014 | 0.002 | 0.0005 | 0.009 | 0.0004 | 21
4 | ClC(Cl)C(=Nc1ccccc1)OCc1cccc(Oc2ccccc2)c1 [Compound 41] | 0.04 | – | 0.0035 | – | 0.015 | 4.5
5 | CC(C)C(=Nc1c(F)c(F)c(F)c(F)c1F)OCc1cccc(Oc2ccccc2)c1 [Compound 51] | 0.067 | 0.001 | 0.0025 | – | 0.001 | 25
6 | CC(C)C(=Nc1ccc(F)c(F)c1)OCc1cccc(Oc2ccc(F)cc2)c1 [Compound 60] | 0.017 | 0.002 | 0.0009 | 0.0075 | 0.001 | 8
7 | Cc1c(F)cccc1N=C(OCc1cccc(Oc2ccccc2)c1)C(C)C [Compound 73] | 0.025 | – | 0.005 | – | 0.004 | 25
8 | Cc1ccc(F)cc1N=C(OCc1cccc(Oc2ccccc2)c1)C(C)C [Compound 74] | 0.025 | – | 0.0025 | – | 0.005 | 25
9 | Cc1ccc(N=C(OCc2cccc(Oc3ccccc3)c2)C(C)C)cc1F [Compound 75] | 0.01 | 0.0008 | 0.0075 | – | 0.0025 | 5
10 | COc1ccc(N=C(OCc2cccc(Oc3ccccc3)c2)C(C)C)cc1Cl [Compound 95] | 0.025 | – | 0.004 | – | 0.0025 | 10
11 | Cc1cc(Cl)ccc1N=C(OCc1cccc(Oc2ccccc2)c1)C(C)C [Compound 96] | 0.025 | – | 0.0025 | – | 0.003 | 35
12 | CC(C)C(=Nc1ccc(F)c(C(F)(F)F)c1)OCc1cccc(Oc2ccc(F)cc2)c1 [Compound 120] | 0.04 | 0.0003 | 0.0025 | > 0.01 | 0.00015 | 14
13 | CCOc1ccc(N=C(OCc2cccc(Oc3ccccc3)c2)C(Cl)Cl)cc1 [Compound 138] | 0.08 | > 0.05 | 0.015 | > 0.01 | 0.005 | 19
14 | CC(C)(C)c1ccc(N=C(OCc2cccc(Oc3ccccc3)c2)C(Cl)Cl)cc1 [Compound 140] | > 0.1 | – | > 0.1 | – | < 0.1 | > 100
15 | COc1ccccc1N=C(OCc1cccc(Oc2ccccc2)c1)C(C)C [Compound 145] | > 0.1 | > 0.05 | 0.05 | – | 0.05 | > 100
